A short description of one data set: Solubility in water. The settings on record: for solubility: water.
A short description of data set [1]: Solubility in water in the presence of excess toluene. It counts as physicochemical. The settings on record: excess of toluene added to the aqueous phase; relative to 3.2 mg/ml in water. Here is the method:
The suspension obtained upon cooling a neutralization of reaction mixture was concentrated to 600 ml and dialyzed for 7 h at room temperature. The retained suspension (.intg.700 ml) was stirred with toluene (10 ml) for 14 h, water (500 ml) was added, stirred for 15 min, and filtered. The residue was suspended in water (1.25 L), stirred for 1 h, and filtered. The combined filtrates were concentrated to 200 ml, refrigerated overnight, the sclid was collected by filtration, and recrystallized from hot water to yield white crystals of the product. Rf 0.25 (1-propanol-water-ethyl acetate-ammonium hydroxide, 6:3:1:1), FIG. 1. M.P. 292°-293° C. MS (FAB+) m/e 1193.2 (M+H^+), 1210.3 (M+H2 O). MS (FAB-) m/e 1191.1 (M-H^+), 1210.2 (M+H2 O). MS (^252 Cf) m/e 1215.8 (M+Na^+). ^1 H-NMR (D2 O) δ5.30-5.23 and 5.17- 5.05 (m, 7H, H-1), 4.16-3.40 (m, 45H), 1.17 (d, J=6.42, 3H, CH3). Anal. for C45 H76 O36 ·3H2 O; calcd. C 43.30, H 6.58; found C 43.31, H 6.43.

≈ marks a conversion by molar mass, not a printed value.

Results on six molecules are retold here after patent US5173481A, “Preparation of specifically substituted cyclodextrins” (The United States of America as represented by the …, priority 1990, dated 1992).

By solubility is commonly meant the dissolved amount per volume that the medium holds.

In turn, `C[C@@H](O)CO[C@H]1[C@H]2O[C@H]3[C@H](O)[C@@H](O)[C@@H](O[C@H]4[C@H](O)[C@@H](O)[C@@H](O[C@H]5[C@H](O)[C@@H](O)[C@@H](O[C@H]6[C@H](O)[C@@H](O)[C@@H](O[C@H]7[C@H](O)[C@@H](O)[C@@H](O[C@H]8[C@H](O)[C@@H](O)[C@@H](O[C@@H]([C@@H]1O)[C@@H](CO)O2)O[C@@H]8CO)O[C@@H]7CO)O[C@@H]6CO)O[C@@H]5CO)O[C@@H]4CO)O[C@@H]3CO` [2-O-[(R)-2'-Hydoxypropy]-β-cyclodextrin] had a solubility in the data set “Solubility in water” of 7500 µg/mL (≈ 6.29 mM).
For “Mono[(S)-2-Hydroxypropyl]-α-Cyclodextrin”, the solubility in water is listed as greater than 50%.
In “Solubility in water”, `OC[C@H](O)CO[C@H]1[C@H]2O[C@H]3[C@H](O)[C@@H](O)[C@@H](O[C@H]4[C@H](O)[C@@H](O)[C@@H](O[C@H]5[C@H](O)[C@@H](O)[C@@H](O[C@H]6[C@H](O)[C@@H](O)[C@@H](O[C@H]7[C@H](O)[C@@H](O)[C@@H](O[C@H]8[C@H](O)[C@@H](O)[C@@H](O[C@@H]([C@@H]1O)[C@@H](CO)O2)O[C@@H]8CO)O[C@@H]7CO)O[C@@H]6CO)O[C@@H]5CO)O[C@@H]4CO)O[C@@H]3CO` [2-O-[(S)-2', 3'-Dihydroxypropyl-β-cyclodextrin] gave a solubility of 12000 µg/mL (≈ 9.93 mM).
`C[C@H](O)CO[C@H]1[C@H]2O[C@H]3[C@H](O)[C@@H](O)[C@@H](O[C@H]4[C@H](O)[C@@H](O)[C@@H](O[C@H]5[C@H](O)[C@@H](O)[C@@H](O[C@H]6[C@H](O)[C@@H](O)[C@@H](O[C@H]7[C@H](O)[C@@H](O)[C@@H](O[C@H]8[C@H](O)[C@@H](O)[C@@H](O[C@@H]([C@@H]1O)[C@@H](CO)O2)O[C@@H]8CO)O[C@@H]7CO)O[C@@H]6CO)O[C@@H]5CO)O[C@@H]4CO)O[C@@H]3CO` [2-O-[(S)-2'-Hydroxypropyl]-β-cyclodextrin] gave a solubility in the data set “Solubility in water” of 3200 µg/mL (≈ 2.68 mM). In addition, the “solubility in water with excess of toluene added” value in data set [1] is on record as “only insignificantly changed”.
With `CC(O)CO[C@H]1[C@H]2O[C@H]3[C@H](O)[C@@H](O)[C@@H](O[C@H]4[C@H](O)[C@@H](O)[C@@H](O[C@H]5[C@H](O)[C@@H](O)[C@@H](O[C@H]6[C@H](O)[C@@H](O)[C@@H](O[C@H]7[C@H](O)[C@@H](O)[C@@H](O[C@H]8[C@H](O)[C@@H](O)[C@@H](O[C@@H]([C@@H]1O)[C@@H](CO)O2)O[C@@H]8CO)O[C@@H]7CO)O[C@@H]6CO)O[C@@H]5CO)O[C@@H]4CO)O[C@@H]3CO` (stereo partly drawn) [2-O-(2-hydroxypropyl)-β-cyclodextrin], the “solubility (qualitative)” value in the data set “Solubility in water” (inferred as probable reason for easy isolation) was “very low solubility”.
For the molecule `CC(O)CO[C@H]1[C@H]2O[C@H]3[C@H](O)[C@@H](O)[C@@H](O[C@H]4[C@H](O)[C@@H](O)[C@@H](O[C@H]5[C@H](O)[C@@H](O)[C@@H](O[C@H]6[C@H](O)[C@@H](O)[C@@H](O[C@H]7[C@H](O)[C@@H](O)[C@@H](O[C@H]8[C@H](O)[C@@H](O)[C@@H](O[C@@H]([C@@H]1O)[C@@H](CO)O2)O[C@@H]8CO)O[C@@H]7CO)O[C@@H]6CO)O[C@@H]5CO)O[C@@H]4CO)O[C@@H]3CO` (stereo partly drawn) [2-O-[(RS)-2'-Hydroxypropyl]-β-cyclodextrin], the solubility in the data set “Solubility in water” was found to be 4000 µg/mL (≈ 3.35 mM).
